In the supplement of paper PMC10307832:

Columns and labels:
Test in all cases: relative viability (nuclei count vs DMSO), 5 days (fraction); higher = more cells survive
AZD5582 + Trametinib = compound: C[C@@H](C(=O)N[C@@H](C1CCCCC1)C(=O)N2CCC[C@H]2C(=O)N[C@@H]3[C@@H](CC4=CC=CC=C34)OCC#CC#CCO[C@@H]5CC6=CC=CC=C6[C@@H]5NC(=O)[C@@H]7CCCN7C(=O)[C@H](C8CCCCC8)NC(=O)[C@H](C)NC)NC [AZD5582] + CC(=O)Nc1cccc(-n2c(=O)n(C3CC3)c(=O)c3c(Nc4ccc(I)cc4F)n(C)c(=O)c(C)c32)c1 [Trametinib] (partner 0.02 µM)
Procedure, shortened: (§1)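 Five library-drug doses in √10 steps were combined with a fixed anchor-drug dose, or a single drug was given alone, by pin tool to lung cancer cell lines in 1536-well plates the day after seeding. Nuclei were stained and counted after 5 days. Relative viability is the nuclei count in treated wells over that in vehicle wells, taken as the median of duplicate plates.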

AZD5582 + Phenformin = compound: C[C@@H](C(=O)N[C@@H](C1CCCCC1)C(=O)N2CCC[C@H]2C(=O)N[C@@H]3[C@@H](CC4=CC=CC=C34)OCC#CC#CCO[C@@H]5CC6=CC=CC=C6[C@@H]5NC(=O)[C@@H]7CCCN7C(=O)[C@H](C8CCCCC8)NC(=O)[C@H](C)NC)NC [AZD5582] + N=C(N)NC(=N)NCCc1ccccc1 [Phenformin] (partner 250 µM)
Procedure, shortened: as §1

[1] = compound: Cn1nnc2c(C(N)=O)ncn2c1=O [Temozolomide] + CC(C)C[C@H](NC(=O)[C@H](Cc1ccccc1)NC(=O)c1cnccn1)B(O)O [Bortezomib] (partner 0.002 µM)
Procedure, shortened: as §1

[2] = compound: Cn1nnc2c(C(N)=O)ncn2c1=O [Temozolomide] + O=C(CCCCCCC(=O)Nc1ccccc1)NO [Vorinostat] (partner 1 µM)
Procedure, shortened: as §1

| Cell Line | relative viability (AZD5582 + Trametinib; first compound 0.001581 µM) | relative viability (AZD5582 + Trametinib; first compound 0.005 µM) | relative viability (AZD5582 + Trametinib; first compound 0.01581 µM) | relative viability (AZD5582 + Trametinib; first compound 0.05 µM) | relative viability (AZD5582 + Phenformin; first compound 0.001581 µM) | relative viability (AZD5582 + Phenformin; first compound 0.005 µM) | relative viability (AZD5582 + Phenformin; first compound 0.01581 µM) | relative viability (AZD5582 + Phenformin; first compound 0.05 µM) | relative viability ([1]; first compound 0.2 µM) | relative viability ([1]; first compound 0.6325 µM) | relative viability ([1]; first compound 2 µM) | relative viability ([1]; first compound 6.325 µM) | relative viability ([1]; first compound 20 µM) | relative viability ([2]; first compound 0.2 µM) | relative viability ([2]; first compound 0.6325 µM) | relative viability ([2]; first compound 2 µM) | relative viability ([2]; first compound 6.325 µM) | relative viability ([2]; first compound 20 µM) |
| --- | --- | --- | --- | --- | --- | --- | --- | --- | --- | --- | --- | --- | --- | --- | --- | --- | --- | --- |
| 201T | 0.786 | 0.842 | 0.719 | 0.847 | 0.459 | 0.478 | 0.406 | 0.579 | 1.15 | 1.08 | 1.08 | 1.07 | 1.08 | 0.942 | 0.939 | 1.04 | 0.91 | 0.867 |
| A549 |  |  |  |  | 0.172 | 0.127 | 0.152 | 0.278 |  |  |  |  |  |  |  |  |  |  |
| A-427 | 0.568 | 0.608 | 0.71 | 0.566 | 0.265 | 0.322 | 0.248 | 0.206 | 1 | 0.934 | 0.993 | 0.87 | 0.616 | 0.883 | 0.896 | 0.837 | 0.685 | 0.569 |
| ABC-1 |  |  |  |  | 0.239 | 0.241 | 0.23 | 0.251 | 0.351 | 0.274 | 0.383 | 0.315 | 0.256 | 1.48 | 0.771 | 0.907 | 1.21 | 1.08 |
| BEN | 0.893 | 1.13 | 1.05 | 1.2 | 0.278 | 0.249 | 0.301 | 0.27 | 0.965 | 0.77 | 0.911 | 0.577 | 0.588 | 0.567 | 0.558 | 0.652 | 0.58 | 0.552 |
| CAL-12T | 0.31 | 0.34 | 0.291 | 0.216 | 0.354 | 0.27 | 0.408 | 0.222 |  | 0.964 | 0.945 | 1.04 | 0.967 | 0.889 | 0.881 | 0.885 | 0.781 | 0.628 |
| COR-L23 | 0.485 | 0.75 | 0.584 | 0.523 | 0.42 | 0.418 | 0.385 | 0.521 | 1.15 | 1.12 | 1.08 | 1.06 | 0.963 | 0.521 | 0.531 | 0.521 | 0.476 | 0.371 |
| COR-L 105 | 0.445 | 0.517 | 0.427 | 0.539 | 0.503 | 0.651 | 0.392 | 0.496 | 0.646 | 0.683 | 1.01 | 0.756 | 0.32 | 0.769 | 0.645 | 0.922 | 0.837 | 0.7 |
| Calu-6 |  |  |  |  |  |  |  |  | 1.11 | 0.866 | 1.25 | 0.955 | 1.02 |  |  |  |  |  |
| ChaGo-K-1 | 0.897 | 0.883 | 0.886 | 0.936 | 0.445 | 0.54 | 0.4 | 0.513 | 1.17 | 0.955 | 1.21 | 0.967 | 0.985 | 0.85 | 0.724 | 0.719 | 0.738 | 0.733 |
| EBC-1 |  |  |  |  |  |  |  |  | 0.601 | 0.577 | 0.549 | 0.544 | 0.575 |  |  |  |  |  |
